Assay results reported in PubChem BioAssay (NCI).
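Cultured in 96-well plates, cells were exposed to test compound for 48 hours across five concentrations. Here, GI50 denotes the concentration required for 50% inhibition of growth. TGI marks complete inhibition of growth.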

Tests used:
Assay in all cases: DTP human tumour cell line panel, 48 h
HOP-92 NSCLC = tested on: HOP-92 NSCLC
SF-539 CNS = tested on: SF-539 CNS
CCRF-CEM leukemia = tested on: CCRF-CEM leukemia
U251 CNS = tested on: U251 CNS
UACC-257 melanoma = tested on: UACC-257 melanoma
HS 578T breast = tested on: HS 578T breast
UACC-62 melanoma = tested on: UACC-62 melanoma
RPMI-8226 leukemia = tested on: RPMI-8226 leukemia
SK-MEL-28 melanoma = tested on: SK-MEL-28 melanoma
LOX IMVI melanoma = tested on: LOX IMVI melanoma
RXF 393 renal = tested on: RXF 393 renal
HOP-62 NSCLC = tested on: HOP-62 NSCLC
NCI-H226 lung = tested on: NCI-H226 lung
T-47D breast = tested on: T-47D breast
OVCAR-4 ovarian = tested on: OVCAR-4 ovarian
COLO 205 colon = tested on: COLO 205 colon
SW-620 colon = tested on: SW-620 colon
SNB-75 CNS = tested on: SNB-75 CNS
MOLT-4 leukemia = tested on: MOLT-4 leukemia
HCT-15 colon = tested on: HCT-15 colon
OVCAR-5 ovarian = tested on: OVCAR-5 ovarian
SK-OV-3 ovarian = tested on: SK-OV-3 ovarian
MDA-MB-231 breast = tested on: MDA-MB-231 breast
HL-60(TB) leukemia = tested on: HL-60(TB) leukemia
IGROV1 ovarian = tested on: IGROV1 ovarian
HCC-2998 colon = tested on: HCC-2998 colon
SK-MEL-5 melanoma = tested on: SK-MEL-5 melanoma
BT-549 breast = tested on: BT-549 breast
NCI-H522 lung = tested on: NCI-H522 lung
SK-MEL-2 melanoma = tested on: SK-MEL-2 melanoma
NCI-H460 lung = tested on: NCI-H460 lung
M14 melanoma = tested on: M14 melanoma
PC-3 prostate = tested on: PC-3 prostate
MDA-MB-435 = tested on: MDA-MB-435
EKVX NSCLC = tested on: EKVX NSCLC
SR leukemia = tested on: SR leukemia
SF-268 CNS = tested on: SF-268 CNS
OVCAR-3 ovarian = tested on: OVCAR-3 ovarian
OVCAR-8 ovarian = tested on: OVCAR-8 ovarian
MALME-3M melanoma = tested on: MALME-3M melanoma
KM12 colon = tested on: KM12 colon
HT29 colon = tested on: HT29 colon
NCI-H23 lung = tested on: NCI-H23 lung
SN12C renal = tested on: SN12C renal
786-0 renal = tested on: 786-0 renal
HCT-116 colon = tested on: HCT-116 colon
MCF7 breast = tested on: MCF7 breast
DU-145 prostate = tested on: DU-145 prostate
SF-295 CNS = tested on: SF-295 CNS
A549 NSCLC = tested on: A549 NSCLC
SNB-19 CNS = tested on: SNB-19 CNS
NCI/ADR-RES ovarian = tested on: NCI/ADR-RES ovarian
ACHN renal = tested on: ACHN renal
A498 renal = tested on: A498 renal
UO-31 renal = tested on: UO-31 renal
K-562 leukemia = tested on: K-562 leukemia
TK-10 renal = tested on: TK-10 renal
CAKI-1 renal = tested on: CAKI-1 renal

With `CCN1CCN(c2cc(C)nc(N(CCNc3ccnc4cc(Cl)ccc34)Cc3ccc4c(c3)OCO4)n2)CC1` the GI50 (HOP-92 NSCLC) was 1.21 µM, the TGI (HOP-92 NSCLC) was 3.71 µM and the GI50 (SF-539 CNS) was 1.52 µM. It also gave a TGI (SF-539 CNS) of 3.12 µM, a GI50 (CCRF-CEM leukemia) of 0.728 µM and a TGI (CCRF-CEM leukemia) of 4.69 µM. It also gave a GI50 (U251 CNS) of 1.49 µM, a TGI (U251 CNS) of 3.16 µM and a GI50 (UACC-257 melanoma) of 2.05 µM. It also gave a TGI (UACC-257 melanoma) of 3.88 µM, a GI50 (HS 578T breast) of 1.79 µM and a TGI (HS 578T breast) of 4.15 µM. The GI50 (UACC-62 melanoma) was 1.83 µM, the TGI (UACC-62 melanoma) was 3.63 µM and the GI50 (RPMI-8226 leukemia) was 1.2 µM. It also gave a TGI (RPMI-8226 leukemia) of 3.37 µM, a GI50 (SK-MEL-28 melanoma) of 1.72 µM and a TGI (SK-MEL-28 melanoma) of 3.5 µM. It also gave a GI50 (LOX IMVI melanoma) of 1.5 µM, a TGI (LOX IMVI melanoma) of 2.89 µM and a GI50 (RXF 393 renal) of 0.688 µM. For the same compound, the TGI (RXF 393 renal) was 2.12 µM, the GI50 (HOP-62 NSCLC) was 1.94 µM and the TGI (HOP-62 NSCLC) was 5.21 µM. It also gave a GI50 (NCI-H226 lung) of 2.43 µM, a TGI (NCI-H226 lung) of 7.05 µM and a GI50 (T-47D breast) of 1.99 µM. The TGI (T-47D breast) was 4.96 µM, the GI50 (OVCAR-4 ovarian) was 1.93 µM and the TGI (OVCAR-4 ovarian) was 6.18 µM. It also gave a GI50 (COLO 205 colon) of 1.51 µM, a TGI (COLO 205 colon) of 3.26 µM and a GI50 (SW-620 colon) of 1.58 µM. It also gave a TGI (SW-620 colon) of 3.45 µM, a GI50 (SNB-75 CNS) of 1.33 µM and a TGI (SNB-75 CNS) of 2.72 µM. For the same compound, the GI50 (MOLT-4 leukemia) was 0.728 µM, the TGI (MOLT-4 leukemia) was 3.1 µM and the GI50 (HCT-15 colon) was 0.875 µM. The TGI (HCT-15 colon) was 2.69 µM, the GI50 (OVCAR-5 ovarian) was 2.53 µM and the TGI (OVCAR-5 ovarian) was 6.51 µM. For the same compound, the GI50 (SK-OV-3 ovarian) was 2.12 µM, the TGI (SK-OV-3 ovarian) was 5.34 µM and the GI50 (MDA-MB-231 breast) was 1.37 µM. The TGI (MDA-MB-231 breast) was 3 µM, the GI50 (HL-60(TB) leukemia) was 1.9 µM and the TGI (HL-60(TB) leukemia) was 3.84 µM. For the same compound, the GI50 (IGROV1 ovarian) was 1.48 µM, the TGI (IGROV1 ovarian) was 3.92 µM and the GI50 (HCC-2998 colon) was 2.09 µM. It also gave a TGI (HCC-2998 colon) of 4.22 µM, a GI50 (SK-MEL-5 melanoma) of 1.56 µM and a TGI (SK-MEL-5 melanoma) of 2.93 µM. The GI50 (BT-549 breast) was 1.54 µM, the TGI (BT-549 breast) was 3.13 µM and the GI50 (NCI-H522 lung) was 1.58 µM. It also gave a TGI (NCI-H522 lung) of 3.18 µM, a GI50 (SK-MEL-2 melanoma) of 1.63 µM and a TGI (SK-MEL-2 melanoma) of 3.15 µM. It also gave a GI50 (NCI-H460 lung) of 1.77 µM, a TGI (NCI-H460 lung) of 3.61 µM and a GI50 (M14 melanoma) of 1.49 µM. For the same compound, the TGI (M14 melanoma) was 2.95 µM, the GI50 (PC-3 prostate) was 1.98 µM and the TGI (PC-3 prostate) was 7 µM. For the same compound, the GI50 (MDA-MB-435) was 1.48 µM, the TGI (MDA-MB-435) was 2.9 µM and the GI50 (EKVX NSCLC) was 2.33 µM. For the same compound, the TGI (EKVX NSCLC) was 7.91 µM, the GI50 (SR leukemia) was 0.189 µM and the TGI (SR leukemia) was 0.544 µM. For the same compound, the GI50 (SF-268 CNS) was 1.8 µM, the TGI (SF-268 CNS) was 3.72 µM and the GI50 (OVCAR-3 ovarian) was 1.2 µM. The TGI (OVCAR-3 ovarian) was 2.64 µM, the GI50 (OVCAR-8 ovarian) was 1.64 µM and the TGI (OVCAR-8 ovarian) was 3.36 µM. The GI50 (MALME-3M melanoma) was 1.67 µM, the TGI (MALME-3M melanoma) was 3.37 µM and the GI50 (KM12 colon) was 1.8 µM. For the same compound, the TGI (KM12 colon) was 5.97 µM, the GI50 (HT29 colon) was 1.16 µM and the TGI (HT29 colon) was 3.71 µM. The GI50 (NCI-H23 lung) was 1.88 µM, the TGI (NCI-H23 lung) was 5.01 µM and the GI50 (SN12C renal) was 1.83 µM. It also gave a TGI (SN12C renal) of 3.71 µM, a GI50 (786-0 renal) of 1.49 µM and a TGI (786-0 renal) of 2.9 µM. For the same compound, the GI50 (HCT-116 colon) was 1.03 µM, the TGI (HCT-116 colon) was 2.39 µM and the GI50 (MCF7 breast) was 1.19 µM. The TGI (MCF7 breast) was 2.83 µM, the GI50 (DU-145 prostate) was 2.23 µM and the TGI (DU-145 prostate) was 7.25 µM. It also gave a GI50 (SF-295 CNS) of 1.45 µM, a TGI (SF-295 CNS) of 2.98 µM and a GI50 (A549 NSCLC) of 2.13 µM. For the same compound, the TGI (A549 NSCLC) was 4.93 µM, the GI50 (SNB-19 CNS) was 2.67 µM and the TGI (SNB-19 CNS) was 8.49 µM. It also gave a GI50 (NCI/ADR-RES ovarian) of 1.6 µM, a TGI (NCI/ADR-RES ovarian) of 3.51 µM and a GI50 (ACHN renal) of 1.86 µM. It also gave a TGI (ACHN renal) of 4.39 µM, a GI50 (A498 renal) of 1.5 µM and a TGI (A498 renal) of 3.3 µM. The GI50 (UO-31 renal) was 1.36 µM, the TGI (UO-31 renal) was 3.3 µM and the GI50 (K-562 leukemia) was 0.355 µM. It also gave a TGI (K-562 leukemia) of 1.7 µM.
For `CCN(CC)Cc1cc(Nc2c3ccccc3nc3c4ccccc4n(C)c23)cc(CN(CC)CC)c1O`, the TGI (HOP-92 NSCLC) was 17.2 µM, the TGI (SF-539 CNS) was 15.2 µM and the TGI (CCRF-CEM leukemia) was 14.2 µM. The TGI (U251 CNS) was 20.1 µM, the TGI (UACC-257 melanoma) was 7.07 µM and the TGI (HS 578T breast) was 26.6 µM. The TGI (UACC-62 melanoma) was 10.4 µM, the TGI (RPMI-8226 leukemia) was > 100 µM and the TGI (SK-MEL-28 melanoma) was 6.34 µM. For the same compound, the TGI (TK-10 renal) was 28.1 µM, the TGI (RXF 393 renal) was 10.1 µM and the TGI (HOP-62 NSCLC) was 20.4 µM. The TGI (NCI-H226 lung) was 18.4 µM, the TGI (T-47D breast) was 15.7 µM and the TGI (OVCAR-4 ovarian) was 18 µM. The TGI (COLO 205 colon) was 10.8 µM, the TGI (SW-620 colon) was 13.3 µM and the TGI (SNB-75 CNS) was 25.2 µM. The TGI (MOLT-4 leukemia) was > 33.3 µM, the TGI (HCT-15 colon) was 14.4 µM and the TGI (OVCAR-5 ovarian) was 22.1 µM. The TGI (SK-OV-3 ovarian) was 32.5 µM, the TGI (MDA-MB-231 breast) was 13.4 µM and the TGI (HL-60(TB) leukemia) was 12.2 µM. For the same compound, the TGI (IGROV1 ovarian) was 24.6 µM, the TGI (HCC-2998 colon) was 19.2 µM and the TGI (SK-MEL-5 melanoma) was 3.72 µM. For the same compound, the TGI (BT-549 breast) was 11.1 µM, the TGI (NCI-H522 lung) was 4.77 µM and the TGI (SK-MEL-2 melanoma) was 7.6 µM. It also gave a TGI (NCI-H460 lung) of 16 µM, a TGI (M14 melanoma) of 3.37 µM and a TGI (PC-3 prostate) of 11.8 µM. For the same compound, the TGI (MDA-MB-435) was 10.2 µM, the TGI (EKVX NSCLC) was 21.4 µM and the TGI (SR leukemia) was 10.7 µM. The TGI (CAKI-1 renal) was 29.2 µM, the TGI (SF-268 CNS) was 28.8 µM and the TGI (OVCAR-3 ovarian) was 11.2 µM. The TGI (OVCAR-8 ovarian) was 20.8 µM, the TGI (MALME-3M melanoma) was 5.25 µM and the TGI (KM12 colon) was 20.7 µM. For the same compound, the TGI (HT29 colon) was 11.8 µM, the TGI (NCI-H23 lung) was 27 µM and the TGI (SN12C renal) was 20.4 µM. For the same compound, the TGI (786-0 renal) was 14.9 µM, the TGI (HCT-116 colon) was 11 µM and the TGI (MCF7 breast) was 19.3 µM. It also gave a TGI (DU-145 prostate) of 23.3 µM, a TGI (SF-295 CNS) of 17.6 µM and a TGI (A549 NSCLC) of 31.9 µM. The TGI (SNB-19 CNS) was 27.4 µM, the TGI (NCI/ADR-RES ovarian) was 8.89 µM and the TGI (ACHN renal) was 13.8 µM. For the same compound, the TGI (A498 renal) was 18.4 µM, the TGI (UO-31 renal) was 6.68 µM and the TGI (K-562 leukemia) was > 35 µM.
